Measurements published in ChEMBL document CHEMBL3044797 (Crop Prot, 2008).
Values after ≈ are worked out from the molar mass of the structure shown.

Legend:
Fusarium graminearum [1] = experiment: Fungicidal activity against carbendazim-resistant Fusarium graminearum isolate; type: functional, organism-based
Fusarium graminearum [2] = experiment: Fungicidal activity against compound-resistant Fusarium graminearum isolate; type: functional, organism-based

CCOC(=O)/C(C#N)=C(/N)c1ccccc1
EC50 (Fusarium graminearum [1]): 0.115 µg/mL (≈ 0.532 µM) | EC50 (Fusarium graminearum [2]): 0.14 µg/mL (≈ 0.647 µM)
